Measured values: article PMC13197777, “Distinct 2-phenylimidazo[1,2-a]pyridine derivatives that inhibit breast cancer cell proliferation identified as AHR ligands” (iScience, 2026)
In brackets after ≈: the same amount, converted by molar mass. Like-named read-outs stand apart in the source and are kept apart here.

Columns and labels:
[1] = tested on: ERα in MCF-7 cells; experiment: Immunoblot of ERα in MCF-7 cells; format: cell-based, human; details: MCF-7, 48 h, increasing concentrations up to 1 μM
Method: To determine the relative expression of proteins by Western blotting, cells were first washed with ice-cold phosphate buffered saline (PBS). Subsequently, they were lysed in ice-cold NP40 lysis buffer (1%NP-40, 50 mM Tris-HCl, pH 8.0, 150 mM NaCl, 5 mM Ethylenediaminetetraacetic acid [EDTA], 1 mM PMSF) on ice. DNA was degraded by sonification (five pulses at 50 amplitudes). Protein concentration was determined, and equal amounts of protein were separated on a 9% SDS-PAGE gel. The proteins were transferred onto nitrocellulose membrane by a standard Western blotting protocol and the membranes were incubated with the following antibodies: ERα (Santa Cruz Biotechnology, sc-8002, RRID: AB_627558) and PCNA (Santa Cruz Biotechnology, sc-56, RRID: AB_628110), followed by incubation with HRP labeled Goat anti-mouse Immunoglobulins (DAKO, P0447, RRID: AB_2617137).

[2] = tested on: MCF-7 cells; experiment: Clonogenic assay in MCF-7 cells with AHR antagonist CH223191; format: cell-based, human; details: MCF-7, 10 nM compound, 1 μM CH223191, 14 days
Method: (§1) Cells were seeded at a density of 1–2×10^3 cells/well in a 6-well plate and treated with increasing concentrations of the X compounds for 14–21 days. Medium and compounds were renewed every 7 days. The experiments were terminated by fixing the cells with methanol and the colonies formed were visualized after staining with 0.5% crystal violet (w/v) in 20% methanol (v/v). Plates were photographed and the area covered by the colonies was calculated using the ColonyArea Plugin for Fiji (RRID:SCR_003070).[20]

[3] = tested on: AHR target genes CYP1A1, CYP1B1, ALDH3A1; details: human, 16 h, 1 µM
[4] = Compound stability in aqueous environment; format: physicochemical; details: 12.5 μM, HEPES pH 7.4/acetonitrile 3:2, 1% DMSO, 21 °C, 5 days
Method: The stability of the compounds was evaluated at a concentration of 12.5 μM in a 3:2 mixture of buffer (HEPES, 0.1 M, pH 7.4) and acetonitrile, with 1% DMSO. Acetonitrile was added because the concentration of 12.5 μM exceeded the thermodynamic solubility of the compounds in the buffer. This addition thereby prevented the formation of precipitates and a gradual decrease in compound concentration during the measurement. The resulting solution was stirred at 21 °C in a sealed vial (crimp neck vials, 5 mL, clear (Cat. No. 548-0611A) in combination with natural rubber septa (548-0565A) and aluminum crimp caps (548-3278A), VWR International) for 5 days. […] The AUC measured was subsequently plotted as a function of the incubation time (Figure S3). No signs of decomposition could be observed over the given time.

[5] = Thermodynamic solubility, shake-flask method; format: physicochemical; details: HEPES buffer 0.1 M pH 7.4, 21 °C
Method: Thermodynamic solubility was determined using the classical shake-flask method. The solid compound (4 mg) was suspended in 1 mL HEPES buffer (0.1 M, pH 7.4) and constantly stirred at 21 °C for 24 h. […] The injection volume for all analyses was 50 μL and the flow rate was kept at 1 mL/min during the analysis. A mobile phase gradient method was applied as a method with 5% solvent B to 99% solvent B in 5 min, followed by 3 min of elution at 99% solvent B.
Calibration curve was generated from a serial dilution of the respective analyte in DMSO at 2.5, 1.25, 0.625, 0.313, 0.156, 0.078, 0.039 mM starting from a 10 mM DMSO stock solution. Subsequently, 2 μL of each dilution was added to 198 μL of a buffer (HEPES, 0.1 M, pH 7.4)/acetonitrile mixture in a 3:2 ratio yielding final dilutions of 25, 12.5, 6.25, 3.125, 1.562, 0.781, 0.391 μM. These were then subjected to HPLC analysis as described above.
Using the results from the linear regression of the internal calibration measurement points (Figure S5) and the mean AUC values from the saturated aqueous solutions, the concentration C of the analytes in the saturated aqueous solution, expressed in μM, were calculated using Equation 2:(Equation 1) AUC=Slope·C+YIntercept (Equation 2) C=AUC−YIntercept/Slope

[6] = tested on: ERα LBD or full-length ERα; experiment: Nuclear receptor activity profiling (NAPing), E2-induced ERα-coregulator interaction; format: biochemical; details: E2 −8.5 logM, compound −5.5 logM, LBD or full-length ER
Method: Preparation of assay mixes with ERα recombinant ligand binding domain (LBD) and full-length ERα in MCF-7 extracts and measurement of coregulator recruitment on the NAPing platform (PML, Oss, The Netherlands) was performed as described previously.[68]^,[69] […] Unbound ERα and antibodies were removed by washing. Residual ERα binding to each coregulator motifs was recorded on tiff images and quantified using an R-based analysis software package (PML, Oss, The Netherlands).

[7] = tested on: PDxO#28; experiment: Organoid viability, CellTiter-Glo 3D; format: cell-based, human; details: PDxO#28 in 3D Matrigel, 7 days, increasing doses; same results in PDO#268 and PDO#480
From the text: Organoids were generated from patients’ samples and from patient-derived xenograft (PDX) tumors, as previously described.[25] PDX were derived from BCRO#28, an ER^+ breast cancer sample collected from a treatment naive patient. PDO#268 was derived from BCRO#268, an ER^+ breast cancer sample collected from treatment naive patient. PDO#480 was derived from BCRO#480, an ER^+ breast cancer sample collected from a patient subjected to chemotherapy in neo-adjuvant setting. Briefly, tumors freshly explanted from mice were mechanically shredded, digested with collagenase (Merck) and filtered through a 100 μm strainer. Digested material (isolated cells and small cell clusters) was centrifuged and embedded in 3D-matrix drops (reduced growth factor Basement Membrane Extract, BME, R&D systems), then overlaid with breast cancer organoid medium.[25] For 3D survival curves under treatment, organoids were embedded in BME drops and, after 24 - 48 h, drugs were added. Fresh drug-containing medium was replaced on day 4. On day 7 of treatment, CellTiter-Glo 3D Cell Viability Assay (Promega) was added and luminescent signal from viable organoids was recorded on Infinite M1000 Pro instrument (Tecan).

[8] = tested on: CTC-ITB-01 cells; experiment: cells; format: cell-based; details: Homo sapiens, read-out: LC50
Method: LC50 values were measured using the CyQUANT NF Cell Proliferation Assay Kit (Thermo Fisher). CTC-ITB-01 cells were plated at a density of 2x10^3 cells/well in 96-well plates and treated the following day with serial dilutions of the test compounds. After incubation for the indicated time, cells were stained with CyQUANT dye according to the manufacturer’s protocol and incubated at 37°C for 30 min. Fluorescence was measured using a Tecan Infinite M Nano+ (excitation: 485 nm; emission: 530 nm). For the calculation of the LC50 the fluorescence was plotted against the Log10 of the inhibitor concentration in nM as x values and the LC50 values were calculated with 95% confidence intervals (n = 4).

[9] = biological target: T1, ERα full-length (Homo sapiens, UniProt P03372); experiment: PolarScreen ERα Competitor Assay (fluorescence polarization); format: binding
T1 construct: 34 nM ERα full-length and 1.4 nM Fluormone EL Red were incubated; purchased ThermoFisher A15884
T1 sequence (P03372 1-595): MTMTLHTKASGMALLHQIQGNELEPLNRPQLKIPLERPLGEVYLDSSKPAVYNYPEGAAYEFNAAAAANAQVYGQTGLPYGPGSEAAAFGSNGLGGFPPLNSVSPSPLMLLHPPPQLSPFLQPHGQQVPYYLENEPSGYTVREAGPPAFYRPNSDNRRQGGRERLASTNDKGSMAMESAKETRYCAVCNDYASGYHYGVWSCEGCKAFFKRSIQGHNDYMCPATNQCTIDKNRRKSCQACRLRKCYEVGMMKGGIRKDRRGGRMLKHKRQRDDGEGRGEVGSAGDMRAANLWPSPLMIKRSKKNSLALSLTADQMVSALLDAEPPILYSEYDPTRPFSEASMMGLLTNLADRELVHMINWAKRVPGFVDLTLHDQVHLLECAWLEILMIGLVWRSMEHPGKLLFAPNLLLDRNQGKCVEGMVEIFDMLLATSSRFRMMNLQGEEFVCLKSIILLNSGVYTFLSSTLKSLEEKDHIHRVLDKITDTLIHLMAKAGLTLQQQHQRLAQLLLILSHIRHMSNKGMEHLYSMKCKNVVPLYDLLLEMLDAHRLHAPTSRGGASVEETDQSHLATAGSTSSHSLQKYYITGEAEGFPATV
Method: The PolarScreen Estrogen Receptor-Alpha Competitor Assay, Red (ThermoFisher, A15884) was used to determine if the X compounds bind to ERα. The assay was performed according to the manufacturer’s protocol.

[10] = tested on: MCF-7 luc D538G; experiment: Clonogenic assay (clonal expansion), MCF-7 cells with D538G ER mutation; format: cell-based; details: Homo sapiens, MCF7, 336 h
Method: as §1

[11] = tested on: MCF-7 luc Y537S; experiment: Clonogenic assay (clonal expansion), MCF-7 cells with Y537S ER mutation; format: cell-based; details: Homo sapiens, MCF7, 336 h
Method: as §1

[12] = tested on: MCF-7 luc; experiment: Clonogenic assay (clonal expansion), MCF-7 cells expressing wild-type ER; format: cell-based; details: Homo sapiens, MCF7, 336 h
Method: as §1

[13] = tested on: MCF-7 luc D538G and MCF-7 luc Y537S; experiment: Clonogenic assay, cells expressing the two mutant ERs (range over both); format: cell-based; details: Homo sapiens, MCF7, read-out: IC50 clonal expansion in cells expressing the two mutant ERs
Method: as §1

[14] = parameters: method as in earlier work; details: IUPAC Digitized pKa Dataset ref 30; cited from earlier work
[15] = HEPES buffer, 21 °C, pH 7.4, aqueous buffer, thermodynamic from solid

Structure (SMILES): FC(F)(F)c1cc(Cl)c2nc(-c3ccccc3)cn2c1 [X15696]
- ERα destabilization (immunoblot) [1]: most proficient in destabilizing ERα
- inhibition of colony expansion in the presence of AHR antagonist CH223191 [2]: clearly abrogated by the AHR antagonist CH223191
- expression of AHR target genes (RT-PCR) [3]: enhanced the transcriptional activity of the AHR target genes in both MCF-7 and T47D cells
- stability in aqueous environment [4]: no obvious decomposition detected
- solubility thermodynamic at 24 h [5]: 5 µM (≈ 1.48 µg/mL)
- solubility thermodynamic at 24 h [5, 15]: 5.11 µM (≈ 1.52 µg/mL)

Structure (SMILES): Fc1ccccc1-c1cn2cc(C(F)(F)F)cc(Cl)c2n1 [X19720]
- ERα destabilization (immunoblot) [1]: most proficient in destabilizing ERα
- inhibition of colony expansion in the presence of AHR antagonist CH223191 [2]: clearly abrogated by the AHR antagonist CH223191
- expression of AHR target genes (RT-PCR) [3]: enhanced the transcriptional activity of the AHR target genes in both MCF-7 and T47D cells
- stability in aqueous environment [4]: no obvious decomposition detected
- solubility thermodynamic at 24 h [5]: 1.4 µM (≈ 0.441 µg/mL)
- solubility thermodynamic at 24 h [5, 15]: 1.35 µM (≈ 0.425 µg/mL)

Structure (SMILES): C[C@]12CC[C@@H]3c4ccc(O)cc4C[C@@H](CCCCCCCCC[S+]([O-])CCCC(F)(F)C(F)(F)F)[C@H]3[C@@H]1CC[C@@H]2O (some centres unmarked) [Fulvestrant, reference compound]
- disruption of coactivator peptide binding to E2-liganded ERα [6]: clearly disrupted binding of the coactivator peptides
- organoid viability (survival) [7]: modest
- CC50 ([8]; 48 h): 8800 nM
- CC50 ([8]; 120 h): 6300 nM
- displacement of the Fluormone tracer from ERα [9]: efficiently displaced the Fluormone tracer
- inhibition of colony expansion in the presence of AHR antagonist CH223191 [2]: inhibited colony growth in the presence of CH223191
- IC50 ([10]; read-out: IC50 clonal expansion, Figure 1B, MCF-7 luc D538G, absence of E2, 14 days): 9.57 nM
- IC50 ([10]; read-out: IC50 clonal expansion, Figure 1C, MCF-7 luc D538G + 10 nM E2, 14 days): 1910 nM
- IC50 ([10]; read-out: IC50 clonal expansion, Figure 1D, MCF-7 luc D538G, absence of E2, 14 days): 12.2 nM
- IC50 ([10]; read-out: IC50 clonal expansion, Figure 1E, MCF-7 luc D538G + 10 nM E2, 14 days): 1910 nM
- IC50 ([11]; read-out: IC50 clonal expansion, Figure 1B, MCF-7 luc Y537S, absence of E2, 14 days): 6.6 nM
- IC50 ([11]; read-out: IC50 clonal expansion, Figure 1C, MCF-7 luc Y537S + 10 nM E2, 14 days): 150 nM
- IC50 ([11]; read-out: IC50 clonal expansion, Figure 1D, MCF-7 luc Y537S, absence of E2, 14 days): 7.47 nM
- IC50 ([11]; read-out: IC50 clonal expansion, Figure 1E, MCF-7 luc Y537S + 10 nM E2, 14 days): 147 nM
- IC50 ([12]; Figure 1B, MCF-7 luc, absence of E2, 14 days): 0.14 nM
- IC50 ([12]; Figure 1C, MCF-7 luc + 10 nM E2, 14 days): 69.2 nM
- IC50 ([12]; Figure 1D, MCF-7 luc, absence of E2, 14 days): 0.12 nM
- IC50 ([12]; Figure 1E, MCF-7 luc + 10 nM E2, 14 days): 78.1 nM
- IC50 [13]: 6.6 to 9.57 nM

Structure (SMILES): c1ccn2ccnc2c1 [Imidazo(1,2-a)pyridine]
- experimental pKa [14]: 6.79
